From ChEMBL document CHEMBL4190397, “Design and Synthesis of Novel and Selective Glycine Transporter-1 (GlyT1) Inhibitors with Memory Enhancing Properties” (J Med Chem, 2018) come the findings set out here.

For one data set, the target named is Cytochrome P450 2D6 (Homo sapiens, UniProt P10635). Nature of the data set: Inhibition of CYP2D6 in human liver microsomes using dextromethorphan as substrate measured after 10 mins in presence of NADPH by LC-MS/MS analysis. In general terms: Liver microsomes are vesicles of endoplasmic reticulum, rich in cytochrome P450 enzymes.
The nature of data set [1]: Apparent permeability from apical to basolateral side in MDCK-MDR1 cells monolayer at 5 uM after 60 mins by LC-MS/MS analysis. The conditions noted are these: dog.
A short description of data set [2]: Intrinsic clearance in human liver microsomes at 1 uM assessed per mg protein at 37 degC up to 60 mins in presence of NADPH by HPLC-MS analysis. In kind it is ADME, microsome. Particulars: read-out: CLH.
In data set [3] the target is T1, Sodium- and chloride-dependent glycine transporter 1 (Homo sapiens, UniProt P48067).
T1 sequence (P48067 whole entry): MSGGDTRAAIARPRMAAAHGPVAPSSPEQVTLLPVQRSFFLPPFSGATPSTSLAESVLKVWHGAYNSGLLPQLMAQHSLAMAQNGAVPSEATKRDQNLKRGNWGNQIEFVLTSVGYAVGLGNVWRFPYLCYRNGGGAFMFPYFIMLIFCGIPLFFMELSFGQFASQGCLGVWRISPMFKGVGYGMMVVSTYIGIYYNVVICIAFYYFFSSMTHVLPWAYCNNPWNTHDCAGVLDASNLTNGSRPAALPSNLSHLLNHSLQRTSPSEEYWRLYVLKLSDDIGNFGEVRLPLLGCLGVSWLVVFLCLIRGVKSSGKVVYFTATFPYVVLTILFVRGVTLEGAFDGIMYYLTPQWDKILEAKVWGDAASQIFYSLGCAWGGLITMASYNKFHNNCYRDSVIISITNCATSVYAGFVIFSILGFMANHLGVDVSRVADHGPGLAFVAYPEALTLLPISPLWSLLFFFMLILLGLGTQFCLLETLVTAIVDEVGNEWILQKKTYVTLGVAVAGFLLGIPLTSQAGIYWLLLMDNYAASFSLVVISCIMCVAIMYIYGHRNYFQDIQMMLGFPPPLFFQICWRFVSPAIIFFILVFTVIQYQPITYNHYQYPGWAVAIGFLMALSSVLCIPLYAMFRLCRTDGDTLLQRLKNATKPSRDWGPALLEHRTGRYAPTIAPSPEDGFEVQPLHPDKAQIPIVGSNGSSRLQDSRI
Nature of the data set: Inhibition of recombinant human GlyT1c expressed in HEK293 cells assessed as reduction in [14C]glycine uptake after 2 hrs by microbeta scintillation counting method. The data set is classed as cell-based.

The nature of data set [4]: Efflux ratio of apparent permeability from basolateral to apical over apical to basolateral side in MDCK-MDR1 cells at 5 uM after 60 mins by LC-MS/MS analysis. Particulars: dog.
A short description of data set [5]: Intrinsic clearance in rat liver microsomes at 1 uM assessed per mg protein at 37 degC up to 30 mins in presence of NADPH by HPLC-MS analysis. The data set is classed as ADME, microsome. The conditions noted are these: read-out: CLH.
Data set [6] has as its target T2, Sodium- and chloride-dependent glycine transporter 2 (Homo sapiens, UniProt Q9Y345).
T2 sequence (Q9Y345 whole entry): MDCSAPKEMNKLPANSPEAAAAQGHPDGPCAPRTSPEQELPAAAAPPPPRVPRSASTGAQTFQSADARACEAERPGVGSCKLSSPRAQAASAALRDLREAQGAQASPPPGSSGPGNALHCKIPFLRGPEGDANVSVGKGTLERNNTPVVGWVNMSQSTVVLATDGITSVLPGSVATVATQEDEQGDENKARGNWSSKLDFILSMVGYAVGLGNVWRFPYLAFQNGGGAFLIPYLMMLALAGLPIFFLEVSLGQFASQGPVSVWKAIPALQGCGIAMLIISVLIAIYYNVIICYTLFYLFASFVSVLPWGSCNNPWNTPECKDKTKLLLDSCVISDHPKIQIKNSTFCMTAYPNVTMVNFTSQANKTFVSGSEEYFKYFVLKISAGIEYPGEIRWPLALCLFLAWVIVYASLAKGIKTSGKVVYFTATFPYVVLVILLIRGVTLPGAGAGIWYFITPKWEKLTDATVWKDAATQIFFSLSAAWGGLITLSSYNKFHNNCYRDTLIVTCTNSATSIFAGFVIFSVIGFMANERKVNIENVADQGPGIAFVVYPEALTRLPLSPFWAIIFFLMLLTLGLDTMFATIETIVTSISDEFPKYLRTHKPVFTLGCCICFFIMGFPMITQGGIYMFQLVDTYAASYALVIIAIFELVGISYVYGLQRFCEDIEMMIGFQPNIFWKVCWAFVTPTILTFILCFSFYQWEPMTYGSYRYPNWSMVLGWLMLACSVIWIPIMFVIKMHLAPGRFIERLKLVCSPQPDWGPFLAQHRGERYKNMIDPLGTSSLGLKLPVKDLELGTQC
In words: Inhibition of recombinant human GlyT2 expressed in HEK293 cells assessed as reduction in [14C]glycine uptake after 2 hrs by microbeta scintillation counting method. In kind it is cell-based.

Data set [7] concerns the target Voltage-gated inwardly rectifying potassium channel KCNH2 (Homo sapiens, UniProt Q12809). Nature of the data set: Inhibition of human ERG expressed in CHO cells at 10 nM to 10 uM at holding potential of -80 mV measured after 5 mins by QPatch automated patch clamp electrophysiology method. A general note: In patch-clamp work, channel activity is measured electrically.

Another data set concerns the target Cytochrome P450 3A4 (Homo sapiens, UniProt P08684). In words: Inhibition of CYP3A4 in human liver microsomes using midazolam as substrate measured after 7 mins in presence of NADPH by LC-MS/MS analysis.
The target in a further data set is T3, Cytochrome P450 1A2 (Homo sapiens, UniProt P05177).
T3 sequence (P05177 whole entry): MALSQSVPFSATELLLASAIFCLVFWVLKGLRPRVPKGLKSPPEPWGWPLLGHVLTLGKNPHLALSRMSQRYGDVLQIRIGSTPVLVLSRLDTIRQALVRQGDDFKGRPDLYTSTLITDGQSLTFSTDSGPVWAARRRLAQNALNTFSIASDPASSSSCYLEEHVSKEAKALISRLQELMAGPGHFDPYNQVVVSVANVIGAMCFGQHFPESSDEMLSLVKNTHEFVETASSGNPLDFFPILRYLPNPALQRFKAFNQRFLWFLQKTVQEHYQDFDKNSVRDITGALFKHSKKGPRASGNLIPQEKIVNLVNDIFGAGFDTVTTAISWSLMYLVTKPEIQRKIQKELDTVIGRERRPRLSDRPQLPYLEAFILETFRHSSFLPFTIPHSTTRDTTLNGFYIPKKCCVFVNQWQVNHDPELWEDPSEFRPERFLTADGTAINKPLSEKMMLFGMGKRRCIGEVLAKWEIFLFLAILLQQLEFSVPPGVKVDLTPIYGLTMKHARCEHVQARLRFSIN
In words: Inhibition of CYP1A2 in human liver microsomes using phenacetin as substrate measured after 10 mins in presence of NADPH by LC-MS/MS analysis.

Sequence of Cytochrome P450 3A4 (P08684 whole entry): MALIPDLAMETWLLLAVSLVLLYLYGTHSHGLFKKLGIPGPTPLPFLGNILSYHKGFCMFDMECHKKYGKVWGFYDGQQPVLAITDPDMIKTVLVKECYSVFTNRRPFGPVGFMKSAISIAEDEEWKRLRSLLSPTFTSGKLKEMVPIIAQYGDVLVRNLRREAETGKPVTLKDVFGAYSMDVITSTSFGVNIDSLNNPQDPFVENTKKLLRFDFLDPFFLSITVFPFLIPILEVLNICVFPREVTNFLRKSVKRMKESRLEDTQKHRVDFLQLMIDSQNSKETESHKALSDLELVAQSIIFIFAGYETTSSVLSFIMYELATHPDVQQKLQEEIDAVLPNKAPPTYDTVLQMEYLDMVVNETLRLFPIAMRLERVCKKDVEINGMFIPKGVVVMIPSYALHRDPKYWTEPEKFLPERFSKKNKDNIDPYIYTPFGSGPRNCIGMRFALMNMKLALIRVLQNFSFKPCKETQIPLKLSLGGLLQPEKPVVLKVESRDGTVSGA
Sequence of Voltage-gated inwardly rectifying potassium channel KCNH2 (Q12809 whole entry): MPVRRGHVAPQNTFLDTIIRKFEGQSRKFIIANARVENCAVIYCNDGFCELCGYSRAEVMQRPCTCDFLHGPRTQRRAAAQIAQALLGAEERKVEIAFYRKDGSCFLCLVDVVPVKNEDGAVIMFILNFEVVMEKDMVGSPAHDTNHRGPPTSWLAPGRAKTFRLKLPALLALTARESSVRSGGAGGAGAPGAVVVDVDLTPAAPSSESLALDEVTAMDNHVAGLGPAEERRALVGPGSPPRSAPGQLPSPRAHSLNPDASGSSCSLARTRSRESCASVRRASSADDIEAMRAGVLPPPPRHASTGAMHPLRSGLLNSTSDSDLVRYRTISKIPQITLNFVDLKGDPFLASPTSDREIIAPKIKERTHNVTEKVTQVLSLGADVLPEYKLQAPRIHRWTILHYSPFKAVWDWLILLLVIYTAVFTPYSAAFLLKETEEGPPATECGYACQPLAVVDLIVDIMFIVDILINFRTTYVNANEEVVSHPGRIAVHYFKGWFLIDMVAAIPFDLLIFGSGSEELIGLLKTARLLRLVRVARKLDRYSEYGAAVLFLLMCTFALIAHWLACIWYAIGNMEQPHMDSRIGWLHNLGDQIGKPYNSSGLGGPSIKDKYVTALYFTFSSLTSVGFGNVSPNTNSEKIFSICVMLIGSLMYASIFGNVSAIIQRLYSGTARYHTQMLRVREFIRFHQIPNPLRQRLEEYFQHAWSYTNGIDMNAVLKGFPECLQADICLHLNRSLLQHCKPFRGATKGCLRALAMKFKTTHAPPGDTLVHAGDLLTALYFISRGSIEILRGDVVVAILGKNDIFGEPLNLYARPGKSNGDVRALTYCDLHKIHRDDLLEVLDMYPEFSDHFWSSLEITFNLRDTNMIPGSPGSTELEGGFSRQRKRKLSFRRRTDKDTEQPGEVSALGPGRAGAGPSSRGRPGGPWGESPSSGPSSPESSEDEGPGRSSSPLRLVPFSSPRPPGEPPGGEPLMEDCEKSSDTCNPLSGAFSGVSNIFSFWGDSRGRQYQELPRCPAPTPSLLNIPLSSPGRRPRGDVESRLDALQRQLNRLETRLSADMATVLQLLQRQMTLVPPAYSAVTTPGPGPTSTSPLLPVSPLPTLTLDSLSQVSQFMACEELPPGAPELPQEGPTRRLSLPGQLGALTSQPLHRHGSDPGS
Sequence of Cytochrome P450 2D6 (P10635 whole entry): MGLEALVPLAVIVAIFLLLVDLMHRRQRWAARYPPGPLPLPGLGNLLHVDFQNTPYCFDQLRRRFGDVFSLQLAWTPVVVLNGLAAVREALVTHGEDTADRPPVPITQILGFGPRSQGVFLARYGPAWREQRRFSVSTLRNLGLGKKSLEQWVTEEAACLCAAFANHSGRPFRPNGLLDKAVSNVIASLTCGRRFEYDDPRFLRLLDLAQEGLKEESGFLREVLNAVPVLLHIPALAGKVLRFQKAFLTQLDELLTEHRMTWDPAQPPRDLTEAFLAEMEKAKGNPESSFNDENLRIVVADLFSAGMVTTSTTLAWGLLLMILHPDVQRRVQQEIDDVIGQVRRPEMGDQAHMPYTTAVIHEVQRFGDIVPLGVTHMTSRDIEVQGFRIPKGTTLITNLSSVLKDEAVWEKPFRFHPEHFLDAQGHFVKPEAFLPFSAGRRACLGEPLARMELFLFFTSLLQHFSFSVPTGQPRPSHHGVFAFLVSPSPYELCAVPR

In the case of `C[C@H](Oc1ccc(C#N)cc1C(=O)N1Cc2cn(-c3ccccc3F)nc2C1)C(F)(F)F`, the IC50 – broadly, the concentration that gives 50% inhibition – on Cytochrome P450 2D6 is above 10 µM; in [3], 0.078 µM; in data set [6], above 10 µM; in data set [7], above 10 µM; at Cytochrome P450 3A4, above 10 µM; at Cytochrome P450 1A2, above 10 µM. Also, the apparent permeability from apical to basolateral (Papp A→B) (commonly the apparent permeability from the apical to the basolateral side of a cell layer) at 1 h, 5 µM in data set [1] is 57.4 ×10⁻⁶ cm/s. For the same compound, the microsomal CLint at 1 µM in [2] was 13.5 µL/min/mg; in data set [5], 451 µL/min/mg. Further, the efflux ratio (usually a quotient of directional permeabilities that is used to spot active efflux) at 1 h, 5 µM in data set [4] was 1.1.

Take `CS(=O)(=O)c1ccc(OCC2CC2)c(C(=O)N2Cc3cn(-c4ccccc4F)nc3C2)c1`: the half-maximal inhibitory concentration (IC50) at Cytochrome P450 2D6 is above 10 µM; in data set [3], 0.038 µM; in data set [6] it was above 10 µM; in [7] it was 9.9 µM; on Cytochrome P450 3A4, above 10 µM; on Cytochrome P450 1A2 it was above 10 µM. Also, the Papp A→B at 1 h, 5 µM in data set [1] was determined as 24.6 ×10⁻⁶ cm/s. The microsomal CLint at 1 µM in data set [2] was 0.3 µL/min/mg; in [5], 5.3 µL/min/mg. Also, the efflux ratio at 1 h, 5 µM in data set [4] worked out at 2.4.
